Source: ChEMBL document CHEMBL4715771 (Bioorg Med Chem, 2016)
Active and inactive are the calls of the source. The calls are words filed in the database; no cut-off is given here.

Tests used:
[1] = target: T1, Hepatocyte growth factor receptor (Homo sapiens, UniProt P08581); experiment: Inhibition of c-MET kinase domain (unknown origin) using Tyr6 peptide as substrate measured after 1 hr in presence of ATP by Z'-lyte kinase assay
[2] = tested on: MDA-MB-231; experiment: Antiproliferative activity against triple-negative human MDA-MB-231 cells overexpressing c-Met assessed as inhibition of cell proliferation measured after 72 hrs by MTT assay; type: functional, cell-based; conditions: MDA-MB-231, 72 h
[3] = tested on: MDA-MB-468; experiment: Antiproliferative activity against triple-negative human MDA-MB-468 cells overexpressing c-Met assessed as inhibition of cell proliferation measured after 72 hrs by MTT assay; type: functional, cell-based; conditions: MDA-MB-468, 72 h
[4] = target: Epidermal growth factor receptor (Homo sapiens) (UniProt P00533); experiment: Inhibition of recombinant GST-tagged human EGFR (668 to 1210 residues) expressed in baculovirus expression system at 10 uM by TR-FRET assay relative to control
[5] = target: T1, Hepatocyte growth factor receptor; experiment: Inhibition of c-MET in human MDA-MB-231 cells assessed as downregulation of activated phosphorylated mTOR level measured after 72 hrs in presence of HGF by immunoblot analysis; type: cell-based; conditions: dose 1-3 µM
[6] = target: Macrophage-stimulating protein receptor (Homo sapiens) (UniProt Q04912); experiment: Inhibition of recombinant GST-tagged human RON (983 to 1440 residues) expressed in baculovirus expression system at 10 uM by TR-FRET assay relative to control
[7] = target: Tyrosine-protein kinase receptor UFO (Homo sapiens) (UniProt P30530); experiment: Inhibition of recombinant His-tagged human AXL (473 to end residues) expressed in insect cells at 10 uM by TR-FRET assay relative to control
Tyrosine-protein kinase receptor UFO (Homo sapiens), sequence (P30530 whole entry): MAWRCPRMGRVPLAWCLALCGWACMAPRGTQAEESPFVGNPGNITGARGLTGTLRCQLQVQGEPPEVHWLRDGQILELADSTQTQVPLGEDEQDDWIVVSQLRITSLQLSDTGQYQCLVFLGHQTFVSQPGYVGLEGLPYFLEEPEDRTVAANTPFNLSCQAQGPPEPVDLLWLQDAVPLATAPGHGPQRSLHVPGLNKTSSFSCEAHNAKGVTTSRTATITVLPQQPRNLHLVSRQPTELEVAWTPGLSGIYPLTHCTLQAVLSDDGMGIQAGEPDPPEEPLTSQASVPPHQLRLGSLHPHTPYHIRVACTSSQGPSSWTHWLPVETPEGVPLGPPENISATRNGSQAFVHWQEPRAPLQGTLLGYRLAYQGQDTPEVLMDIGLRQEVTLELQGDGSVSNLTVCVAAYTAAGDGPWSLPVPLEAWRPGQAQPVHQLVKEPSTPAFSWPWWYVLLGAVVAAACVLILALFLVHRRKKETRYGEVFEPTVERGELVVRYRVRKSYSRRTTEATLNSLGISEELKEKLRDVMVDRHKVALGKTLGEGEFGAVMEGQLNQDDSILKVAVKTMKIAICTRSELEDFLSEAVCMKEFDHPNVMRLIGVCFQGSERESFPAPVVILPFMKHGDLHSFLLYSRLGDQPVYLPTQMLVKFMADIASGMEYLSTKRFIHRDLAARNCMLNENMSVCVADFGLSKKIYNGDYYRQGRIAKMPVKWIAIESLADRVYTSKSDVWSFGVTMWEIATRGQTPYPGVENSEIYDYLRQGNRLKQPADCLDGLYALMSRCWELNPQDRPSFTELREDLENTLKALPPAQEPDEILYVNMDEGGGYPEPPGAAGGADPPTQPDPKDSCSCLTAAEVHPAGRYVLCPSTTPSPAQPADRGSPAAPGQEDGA

[8] = target: T1, Hepatocyte growth factor receptor; experiment: Inhibition of c-MET in human MDA-MB-231 cells assessed as downregulation of activated phosphorylated c-MET level at 1 to 3 uM measured after 72 hrs in presence of HGF by immunoblot analysis; type: cell-based; conditions: dose 1-3 µM
[9] = tested on: MCF-10A; experiment: Cytotoxicity against human MCF-10A cells assessed as cell death at 1 to 15 uM measured after 24 hrs by MTT assay; type: cell-based; conditions: dose 1-15 µM
[10] = tested on: BT-474; experiment: Antiproliferative activity against ER-positive human BT-474 cells overexpressing HER2 assessed as inhibition of cell proliferation measured after 72 hrs by MTT assay; type: functional, cell-based; conditions: BT-474, 72 h
[11] = target: T1, Hepatocyte growth factor receptor; experiment: Inhibition of recombinant N-terminal His-tagged human MET (956 to 1390 residues) expressed in baculovirus expression system at 10 uM by TR-FRET assay relative to control
[12] = target: Fibroblast growth factor receptor 1 (Homo sapiens) (UniProt P11362); experiment: Inhibition of recombinant His-tagged human FGFR1 (308 to 731 residues) expressed in baculovirus expression system at 10 uM by TR-FRET assay relative to control
[13] = tested on: MDA-MB-231; experiment: Antitumor activity against GFP-tagged human MDA-MB-231 cells xenografted in athymic nude-Foxn1nu/Foxn1+ mouse assessed as the reduction in tumor growth at 10 mg/kg, ip dosed 3 times per week for 3 weeks treatment started 10 days of post inoculation digital caliper method relative to control; type: functional; conditions: MDA-MB-231, ip, 504 h, read-out: TGI
[14] = target: T1, Hepatocyte growth factor receptor; experiment: Inhibition of c-MET in human MDA-MB-231 cells assessed as downregulation of activated phosphorylated Akt level measured after 72 hrs in presence of HGF by immunoblot analysis; type: cell-based; conditions: dose 1-3 µM
[15] = tested on: MCF7; experiment: Antiproliferative activity against estrogen-dependent human MCF7 cells assessed as inhibition of cell proliferation measured after 72 hrs by MTT assay; type: functional, cell-based; conditions: MCF7, 72 h
[16] = tested on: MDA-MB-231; experiment: Cytotoxicity against human MDA-MB-231 cells assessed as induction of necrotic cell death by measuring LDH release at 0.5 to 8 uM measured after 24 hrs by LDH release assay; type: functional, cell-based; conditions: dose 0.5-8 µM
[17] = target: Proto-oncogene tyrosine-protein kinase ROS (Homo sapiens) (UniProt P08922); experiment: Inhibition of recombinant GST-tagged human ROS1 (1883 to 2347 residues) expressed in baculovirus expression system at 10 uM by TR-FRET assay relative to control
[18] = tested on: MDA-MB-231; experiment: cells; conditions: Homo sapiens, MDA-MB-231, 23 h
[19] = tested on: MDA-MB-231; experiment: Antiinvasive activity against human MDA-MB-231 cells overexpressing c-Met assessed as inhibition of cell invasion at 2 uM measured after 24 hrs by Calcein AM dye based fluorescence assay; type: functional
[20] = target: Tyrosine-protein kinase ABL1 (Homo sapiens) (UniProt P00519); experiment: Inhibition of recombinant full length His-tagged human ABL1 expressed in baculovirus expression system at 10 uM by TR-FRET assay relative to control
[21] = tested on: MDA-MB-231; experiment: Antitumor activity against GFP-tagged human MDA-MB-231 cells xenografted in athymic nude-Foxn1nu/Foxn1+ mouse assessed as the tumor volume at 10 mg/kg, ip dosed 3 times per week for 3 weeks treatment started 10 days of post inoculation by digital caliper method (reference value: 2048 mm3); type: functional
[22] = Cytotoxicity against human MCF-10A cells assessed as reduction in cell viability at 15 uM measured after 24 hrs by MTT assay relative to control; type: cell-based; conditions: read-out: INH
[23] = target: ALK tyrosine kinase receptor (Homo sapiens) (UniProt Q9UM73); experiment: Inhibition of recombinant GST-tagged human ALK (1058 to 1620 residues) expressed in baculovirus expression system at 10 uM by TR-FRET assay relative to control
ALK tyrosine kinase receptor (Homo sapiens), sequence (Q9UM73 19-1620 limits assumed): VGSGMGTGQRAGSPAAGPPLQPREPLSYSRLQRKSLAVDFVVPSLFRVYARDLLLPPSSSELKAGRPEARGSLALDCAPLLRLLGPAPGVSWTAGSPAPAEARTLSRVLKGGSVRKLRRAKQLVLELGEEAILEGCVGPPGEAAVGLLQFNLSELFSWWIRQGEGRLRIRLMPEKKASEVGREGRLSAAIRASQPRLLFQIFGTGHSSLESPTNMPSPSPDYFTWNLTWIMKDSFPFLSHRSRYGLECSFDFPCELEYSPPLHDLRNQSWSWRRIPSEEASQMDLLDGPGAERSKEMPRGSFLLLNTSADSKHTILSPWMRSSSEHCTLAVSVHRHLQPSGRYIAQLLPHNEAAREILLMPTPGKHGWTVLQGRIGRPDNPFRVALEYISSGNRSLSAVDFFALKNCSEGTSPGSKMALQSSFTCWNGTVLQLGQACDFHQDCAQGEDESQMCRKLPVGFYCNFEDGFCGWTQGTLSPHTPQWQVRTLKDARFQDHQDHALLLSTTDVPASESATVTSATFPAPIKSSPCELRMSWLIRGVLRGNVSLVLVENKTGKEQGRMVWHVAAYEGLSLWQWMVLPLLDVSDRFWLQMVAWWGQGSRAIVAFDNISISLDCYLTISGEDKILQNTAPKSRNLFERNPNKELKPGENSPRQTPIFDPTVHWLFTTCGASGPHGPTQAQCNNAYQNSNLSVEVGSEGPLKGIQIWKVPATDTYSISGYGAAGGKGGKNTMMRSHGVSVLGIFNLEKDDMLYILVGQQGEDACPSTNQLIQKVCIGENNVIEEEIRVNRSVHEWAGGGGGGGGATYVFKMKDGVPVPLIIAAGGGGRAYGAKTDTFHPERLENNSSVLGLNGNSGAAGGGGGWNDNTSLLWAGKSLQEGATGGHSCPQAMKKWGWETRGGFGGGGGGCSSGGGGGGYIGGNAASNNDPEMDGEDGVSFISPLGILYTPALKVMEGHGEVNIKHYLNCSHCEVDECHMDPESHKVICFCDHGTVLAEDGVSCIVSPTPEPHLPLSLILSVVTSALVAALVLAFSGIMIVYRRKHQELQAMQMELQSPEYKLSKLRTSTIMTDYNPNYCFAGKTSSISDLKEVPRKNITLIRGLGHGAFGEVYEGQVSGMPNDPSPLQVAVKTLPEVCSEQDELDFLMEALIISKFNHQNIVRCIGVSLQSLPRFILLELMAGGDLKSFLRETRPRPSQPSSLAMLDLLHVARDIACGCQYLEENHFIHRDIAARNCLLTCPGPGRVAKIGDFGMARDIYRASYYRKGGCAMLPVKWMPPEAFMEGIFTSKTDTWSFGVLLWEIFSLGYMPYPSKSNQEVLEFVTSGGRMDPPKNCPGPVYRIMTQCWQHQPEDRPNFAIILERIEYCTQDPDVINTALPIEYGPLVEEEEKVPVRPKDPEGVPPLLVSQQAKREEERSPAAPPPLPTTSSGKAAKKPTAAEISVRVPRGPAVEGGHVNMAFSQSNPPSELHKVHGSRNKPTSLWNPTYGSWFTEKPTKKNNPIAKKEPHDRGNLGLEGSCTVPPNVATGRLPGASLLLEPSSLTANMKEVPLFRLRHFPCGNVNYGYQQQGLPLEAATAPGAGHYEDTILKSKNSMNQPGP

[24] = tested on: Mus musculus; experiment: Downregulation of phosphorylated c-Met level in tumor of athymic nude-Foxn1nu/Foxn1+ mouse xenografted with GFP-tagged human MDA-MB-231 cells at 10 mg/kg, ip dosed 3 times per week for 3 weeks treatment started 10 days of post inoculation by western blot analysis; type: functional, organism-based
[25] = target: T1, Hepatocyte growth factor receptor; experiment: Inhibition of c-MET in human MDA-MB-231 cells assessed as downregulation of activated phosphorylated paxillin level measured after 72 hrs in presence of HGF by immunoblot analysis; type: cell-based; conditions: dose 1-3 µM
[26] = target: Insulin-like growth factor 1 receptor (Homo sapiens) (UniProt P08069); experiment: Inhibition of recombinant C-terminal His-tagged human IGF1R (960 to 1397 residues) expressed in baculovirus expression system at 10 uM by TR-FRET assay relative to control
[27] = target: Receptor tyrosine-protein kinase erbB-2 (Homo sapiens) (UniProt P04626); experiment: Inhibition of recombinant His-tagged human Erbb2 (676 to 1255 residues) expressed in baculovirus expression system at 10 uM by TR-FRET assay relative to control
Receptor tyrosine-protein kinase erbB-2 (Homo sapiens), sequence (P04626 whole entry, the tested form may be a part): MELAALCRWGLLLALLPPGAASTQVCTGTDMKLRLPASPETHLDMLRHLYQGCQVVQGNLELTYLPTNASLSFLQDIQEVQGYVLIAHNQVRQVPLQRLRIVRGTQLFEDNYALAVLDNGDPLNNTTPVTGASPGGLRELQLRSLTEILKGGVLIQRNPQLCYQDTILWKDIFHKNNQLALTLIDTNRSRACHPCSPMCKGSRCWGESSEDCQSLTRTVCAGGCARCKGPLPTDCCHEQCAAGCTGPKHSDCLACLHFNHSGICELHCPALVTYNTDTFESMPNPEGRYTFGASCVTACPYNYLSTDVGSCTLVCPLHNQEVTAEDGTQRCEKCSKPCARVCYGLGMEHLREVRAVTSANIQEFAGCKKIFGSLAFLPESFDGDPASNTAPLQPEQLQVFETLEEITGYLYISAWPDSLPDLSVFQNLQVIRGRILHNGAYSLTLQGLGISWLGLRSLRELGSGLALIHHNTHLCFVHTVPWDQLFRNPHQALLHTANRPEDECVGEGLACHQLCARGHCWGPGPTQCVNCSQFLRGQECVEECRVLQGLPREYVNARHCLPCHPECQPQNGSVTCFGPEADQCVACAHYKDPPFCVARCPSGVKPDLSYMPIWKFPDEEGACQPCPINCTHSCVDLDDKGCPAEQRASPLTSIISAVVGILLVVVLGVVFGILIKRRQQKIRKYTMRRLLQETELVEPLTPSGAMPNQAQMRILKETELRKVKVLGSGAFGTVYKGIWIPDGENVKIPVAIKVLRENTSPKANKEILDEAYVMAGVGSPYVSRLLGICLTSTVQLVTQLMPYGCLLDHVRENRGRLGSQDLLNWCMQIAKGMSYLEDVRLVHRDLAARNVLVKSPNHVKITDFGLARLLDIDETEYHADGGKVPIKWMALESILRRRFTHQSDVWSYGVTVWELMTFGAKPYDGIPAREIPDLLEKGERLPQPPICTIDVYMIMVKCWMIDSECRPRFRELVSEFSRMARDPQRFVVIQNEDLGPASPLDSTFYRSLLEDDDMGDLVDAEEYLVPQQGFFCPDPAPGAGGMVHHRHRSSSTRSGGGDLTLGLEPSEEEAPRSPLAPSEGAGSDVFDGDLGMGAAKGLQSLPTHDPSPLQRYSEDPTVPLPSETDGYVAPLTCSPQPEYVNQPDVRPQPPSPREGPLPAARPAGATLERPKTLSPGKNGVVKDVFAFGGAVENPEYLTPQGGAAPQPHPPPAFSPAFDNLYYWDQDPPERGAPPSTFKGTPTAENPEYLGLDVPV

[28] = Toxicity in athymic nude-Foxn1nu/Foxn1+ mouse assessed as effect on body weight at 10 mg/kg, ip dosed 3 times per week for 3 weeks treatment started 10 days of post inoculation; type: organism-based; conditions: in vivo, 504 h
[29] = tested on: T47D; experiment: Antiproliferative activity against estrogen-dependent human T47D cells assessed as inhibition of cell proliferation measured after 72 hrs by MTT assay; type: functional, cell-based
[30] = tested on: SK-BR-3; experiment: Antiproliferative activity against ER-deficient human SK-BR-3 cells overexpressing HER2 assessed as inhibition of cell proliferation measured after 72 hrs by MTT assay; type: functional, cell-based; conditions: SK-BR-3, 72 h
[31] = target: T1, Hepatocyte growth factor receptor; experiment: Inhibition of c-MET in human MDA-MB-231 cells assessed as downregulation of activated phosphorylated MAPK level measured after 72 hrs in presence of HGF by immunoblot analysis; type: cell-based; conditions: dose 1-3 µM
[32] = target: T1, Hepatocyte growth factor receptor; experiment: Inhibition of c-MET in human MDA-MB-231 cells assessed as downregulation of activated phosphorylated FAK level measured after 72 hrs in presence of HGF by immunoblot analysis; type: cell-based; conditions: dose 1-3 µM
[33] = tested on: MDA-MB-231; experiment: cells; conditions: Homo sapiens, MDA-MB-231, 24 h
[34] = target: T1, Hepatocyte growth factor receptor; experiment: Inhibition of c-MET in human MDA-MB-231 cells assessed as downregulation of activated phosphorylated c-MET level measured after 72 hrs in presence of HGF by immunoblot analysis; type: cell-based; conditions: dose 25-50 µM

T1 sequence (P08581 whole entry, the tested form may be a part): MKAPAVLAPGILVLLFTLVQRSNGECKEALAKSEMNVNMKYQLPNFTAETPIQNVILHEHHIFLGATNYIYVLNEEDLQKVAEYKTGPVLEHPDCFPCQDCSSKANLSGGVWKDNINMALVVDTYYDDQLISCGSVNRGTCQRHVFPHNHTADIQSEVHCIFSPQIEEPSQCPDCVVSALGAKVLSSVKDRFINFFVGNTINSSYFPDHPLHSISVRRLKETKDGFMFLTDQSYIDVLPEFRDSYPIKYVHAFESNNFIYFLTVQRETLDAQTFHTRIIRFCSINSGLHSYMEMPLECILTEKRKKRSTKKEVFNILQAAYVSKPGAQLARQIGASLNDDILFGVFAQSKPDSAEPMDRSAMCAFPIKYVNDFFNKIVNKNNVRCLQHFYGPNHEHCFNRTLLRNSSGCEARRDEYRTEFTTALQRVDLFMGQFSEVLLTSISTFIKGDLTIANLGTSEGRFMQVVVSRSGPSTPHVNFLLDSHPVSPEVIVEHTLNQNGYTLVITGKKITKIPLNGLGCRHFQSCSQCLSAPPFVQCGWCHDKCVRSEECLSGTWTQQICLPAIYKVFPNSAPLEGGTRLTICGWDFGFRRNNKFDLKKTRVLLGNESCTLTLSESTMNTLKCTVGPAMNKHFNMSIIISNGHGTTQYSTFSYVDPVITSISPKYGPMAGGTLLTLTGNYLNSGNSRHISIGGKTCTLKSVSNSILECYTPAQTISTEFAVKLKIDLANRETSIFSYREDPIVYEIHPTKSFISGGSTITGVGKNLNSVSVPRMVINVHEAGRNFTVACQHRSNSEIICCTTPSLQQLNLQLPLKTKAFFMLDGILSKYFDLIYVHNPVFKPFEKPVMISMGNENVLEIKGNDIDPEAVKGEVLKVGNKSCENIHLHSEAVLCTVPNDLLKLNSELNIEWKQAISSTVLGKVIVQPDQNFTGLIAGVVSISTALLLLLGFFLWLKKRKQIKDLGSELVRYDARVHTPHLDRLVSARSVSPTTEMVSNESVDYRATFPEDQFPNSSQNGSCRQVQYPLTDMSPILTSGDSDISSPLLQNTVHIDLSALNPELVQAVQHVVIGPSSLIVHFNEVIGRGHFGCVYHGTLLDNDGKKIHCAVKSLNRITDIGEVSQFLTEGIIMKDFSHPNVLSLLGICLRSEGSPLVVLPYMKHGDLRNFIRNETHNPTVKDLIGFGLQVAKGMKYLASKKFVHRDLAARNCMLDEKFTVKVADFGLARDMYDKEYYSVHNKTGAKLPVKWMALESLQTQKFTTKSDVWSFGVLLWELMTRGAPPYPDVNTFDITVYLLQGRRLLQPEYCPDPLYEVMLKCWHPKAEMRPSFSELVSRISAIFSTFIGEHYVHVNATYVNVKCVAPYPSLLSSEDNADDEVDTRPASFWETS

C/C1=C\[C@H](OC(=O)Nc2cc(Cl)cc(Cl)c2)C[C@](C)(O)/C=C/[C@H](C(C)C)CC/C(C)=C/CC1
IC50 [1]: 2.9 µM
IC50 [2]: 5.3 µM
IC50 [3]: 6.6 µM

C/C1=C\[C@H](OC(=O)Nc2ccc(C(F)(F)F)cc2)C[C@](C)(O)/C=C/[C@H](C(C)C)CC/C(C)=C/CC1
IC50 [2]: 8.9 µM
IC50 [3]: 11.6 µM

C/C1=C\[C@H](OC(=O)NC2CCCCC2)C[C@](C)(O)/C=C/[C@H](C(C)C)CC/C(C)=C/CC1
IC50 [2]: 38.2 µM
IC50 [3]: 39.6 µM

C/C1=C\[C@H](OC(=O)Nc2ccc(-c3ccccc3)cc2)C[C@](C)(O)/C=C/[C@H](C(C)C)CC/C(C)=C/CC1
IC50 [2]: > 50 µM
IC50 [3]: > 50 µM

C/C1=C\[C@H](OC(=O)Nc2ccc(Cl)cc2Cl)C[C@](C)(O)/C=C/[C@H](C(C)C)CC/C(C)=C/CC1
IC50 [2]: 10.4 µM
IC50 [3]: 15.4 µM

C/C1=C\[C@H](OC(=O)Nc2c(Cl)cccc2Cl)C[C@](C)(O)/C=C/[C@H](C(C)C)CC/C(C)=C/CC1
IC50 [2]: 10.8 µM
IC50 [3]: 12.3 µM

C/C1=C\[C@H](OC(=O)Nc2ccc(Cl)c(Cl)c2)C[C@](C)(O)/C=C/[C@H](C(C)C)CC/C(C)=C/CC1
IC50 [2]: 8.5 µM
IC50 [3]: 10.7 µM

C/C1=C\[C@H](OC(=O)Nc2ccccc2)C[C@](C)(O)/C=C/[C@H](C(C)C)CC/C(C)=C/CC1
IC50 [2]: 19.8 µM
IC50 [3]: 22.7 µM

C/C1=C\[C@H](OC(=O)Nc2cccc(F)c2)C[C@](C)(O)/C=C/[C@H](C(C)C)CC/C(C)=C/CC1
IC50 [2]: 16.2 µM
IC50 [3]: 19.5 µM

C/C1=C\[C@H](OC(=O)Nc2cc(C(F)(F)F)cc(C(F)(F)F)c2)C[C@](C)(O)/C=C/[C@H](C(C)C)CC/C(C)=C/CC1
inhibition [4]: 9%
inhibition [5]: Dose-dependent effect
inhibition [6]: 31%
IC50 [1]: 1.1 µM
inhibition [1]: Dose-dependent effect
inhibition [7]: 11%
inhibition [8]: Dose-dependent effect
Activity [9]: Non-Toxic
IC50 [10]: 3.9 µM
inhibition [11]: 84%
inhibition [12]: 49%
inhibition in vivo at 10 mg/kg [13]: 66.7%
inhibition [14]: Dose-dependent effect
IC50 [2]: 1.3 µM
IC50 [15]: 7.2 µM
Activity [16]: Active
inhibition [17]: 3%
IC50 [18]: 1.4 µM
Activity [19]: Active
inhibition [20]: 31%
Activity [21]: 716 mm3
cytotoxicity at 24 h, 15 µM [22]: 8.3%
inhibition [23]: 10%
inhibition [24]: Active
inhibition [25]: Dose-dependent effect
inhibition [26]: 30%
inhibition [27]: 22%
Activity [28]: Non-Toxic
IC50 [29]: 11.2 µM
IC50 [30]: 4.7 µM
inhibition [31]: Dose-dependent effect
inhibition [32]: Dose-dependent effect
IC50 [3]: 2.1 µM
IC50 [33]: 1.7 µM

C/C1=C\[C@H](OC(=O)Nc2ccccc2F)C[C@](C)(O)/C=C/[C@H](C(C)C)CC/C(C)=C/CC1
IC50 [2]: 16.1 µM
IC50 [3]: 17.8 µM

C/C1=C\[C@H](OC(=O)Nc2cccc(C(F)(F)F)c2)C[C@](C)(O)/C=C/[C@H](C(C)C)CC/C(C)=C/CC1
IC50 [1]: 1.8 µM
IC50 [2]: 4.9 µM
IC50 [3]: 5.8 µM

CCc1ccc(NC(=O)O[C@H]2/C=C(\C)CC/C=C(\C)CC[C@@H](C(C)C)/C=C/[C@@](C)(O)C2)cc1
IC50 [2]: 26.3 µM
IC50 [3]: 25.7 µM

C/C1=C\[C@H](OC(=O)Nc2ccc(Cl)cc2)C[C@](C)(O)/C=C/[C@H](C(C)C)CC/C(C)=C/CC1
IC50 [2]: 13.4 µM
IC50 [3]: 12.8 µM

C/C1=C\[C@H](OC(=O)Nc2ccccc2Cl)C[C@](C)(O)/C=C/[C@H](C(C)C)CC/C(C)=C/CC1
IC50 [2]: 13.7 µM
IC50 [3]: 14.5 µM

C/C1=C\[C@H](O)C[C@](C)(O)/C=C/[C@H](C(C)C)CC/C(C)=C/CC1
IC50 [1]: 22.6 µM
inhibition [34]: Dose-dependent effect

C/C1=C\[C@H](OC(=O)Nc2cccc(Cl)c2)C[C@](C)(O)/C=C/[C@H](C(C)C)CC/C(C)=C/CC1
IC50 [1]: 3.4 µM
IC50 [2]: 9.1 µM
IC50 [3]: 10.6 µM

C/C1=C\[C@H](OC(=O)Nc2cccc3ccccc23)C[C@](C)(O)/C=C/[C@H](C(C)C)CC/C(C)=C/CC1
IC50 [2]: > 50 µM
IC50 [3]: > 50 µM

C/C1=C\[C@H](OC(=O)Nc2cccc(C)c2)C[C@](C)(O)/C=C/[C@H](C(C)C)CC/C(C)=C/CC1
IC50 [2]: 27.6 µM
IC50 [3]: 27.9 µM
